Structures are written as SMILES. Like-named read-outs stand apart in the source and are kept apart here.

The experiment relates to test plant species. Kind of experiment: Post-emergent herbicidal activity test (greenhouse, foliar spray, visual growth reduction). The experiment is classed as in vivo. Particulars: post-emergence, 336 h, 140 g ai/ha. The procedure, abridged: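 Visual scoring 14 d after treatment (0 = no injury, 100 = complete control) against nontreated and solvent-blank plants gave percent growth reduction. Foliar application used a track sprayer delivering 187 L/ha to seedlings at first or second true leaf stage, grown at 23–29 °C day, ~15 h photoperiod.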

[1] abbreviates: ECHCG: barnyardgrass (Echinochloa crus-galli), 14 days after application, read-out: Visual Growth Reduction (%) 14 Days After Application, ECHCG.
Where [2] appears, read: IPOHE: ivy-leaf morning glory (Ipomoea hederacea), 14 days after application, read-out: Visual Growth Reduction (%) 14 Days After Application, IPOHE.
The mark [3] stands for this setting: KCHSC: kochia (Bassia scoparia), 14 days after application, read-out: Visual Growth Reduction (%) 14 Days After Application, KCHSC.
The mark [4] stands for this setting: ORYSA: rice (Oryza sativa), 14 days after application, read-out: Visual Growth Reduction (%) 14 Days After Application, ORYSA.
The mark [5] stands for this setting: SETFA: giant foxtail (Setaria faberi), 14 days after application, read-out: Visual Growth Reduction (%) 14 Days After Application, SETFA.
Where [6] appears, read: SORVU: grain sorghum (Sorghum vulgare), 14 days after application, read-out: Visual Growth Reduction (%) 14 Days After Application, SORVU.
Where [7] appears, read: STEME: common chickweed (Stellaria media), 14 days after application, read-out: Visual Growth Reduction (%) 14 Days After Application, STEME.
The mark [8] stands for this setting: TRZAS: wheat, spring (Triticum aestivum), 14 days after application, read-out: Visual Growth Reduction (%) 14 Days After Application, TRZAS.
[9] abbreviates: blackgrass (Alopecurus myosuroides), 14 Days After Application, read-out: Visual Growth Reduction (%) ALOMY.
The mark [10] stands for this setting: canada thistle (Cirsium arvense), 14 Days After Application, read-out: Visual Growth Reduction (%) CIRAR.
Setting [11] is: crabgrass (Digitaria sanguinalis), 14 Days After Application, read-out: Visual Growth Reduction (%) DIGSA.
The mark [12] stands for this setting: lambsquarters (Chenopodium album), 14 Days After Application, read-out: Visual Growth Reduction (%) CHEAL.
[13] abbreviates: redroot pigweed (Amaranthus retroflexus), 14 Days After Application, read-out: Visual Growth Reduction (%) AMARE.
[14] abbreviates: wild oat (Avena fatua), 14 Days After Application, read-out: Visual Growth Reduction (%) AVEFA.
Where [15] appears, read: yellow nutsedge (Cyperus esculentus), 14 Days After Application, read-out: Visual Growth Reduction (%) CYPES.

Take `COC(=O)c1nc(-c2ccc(C(F)(F)F)c(F)c2F)c(F)cc1Cl` [F310, Methyl 3-chloro-6-(2,3-difluoro-4-(trifluoromethyl)phenyl)-5-fluoropicolinate]: the pest or weed control at 140 g/ha under setting [1] was 60 to 74%; the pest or weed control at 140 g/ha under setting [2] is 95 to 100%; the pest or weed control at 140 g/ha under setting [3] was 45 to 59%; the pest or weed control at 140 g/ha under setting [4] was 0 to 29%; the pest or weed control at 140 g/ha under setting [5] was in the range of 85 to 94%; the pest or weed control at 140 g/ha under setting [6] was in the range of 95 to 100%. Also, the pest or weed control at 140 g/ha reads like this: under setting [7], 0 to 29%; under setting [8], 60 to 74%; under setting [9], 45 to 59%; under setting [10], 95 to 100%; under setting [11], 95 to 100%; under setting [12], 95 to 100%. In addition, the pest or weed control at 140 g/ha is, setting by setting: under setting [13], 95 to 100%; under setting [14], 60 to 74%; under setting [15], 75 to 84%.

Take `CCOc1cc(C(F)(F)F)ccc1-c1nc(C(=O)OC)c(Cl)cc1F` [F311, Methyl 3-chloro-6-(2-ethoxy-4-(trifluoromethyl)phenyl)-5-fluoropicolinate]: the pest or weed control at 140 g/ha runs as follows: under setting [1], 0 to 29%; under setting [2], 95 to 100%; under setting [3], 0 to 29%; under setting [4], 0 to 29%; under setting [5], 0 to 29%; under setting [6], 75 to 84%. Besides, the pest or weed control at 140 g/ha is, setting by setting: under setting [7], 0 to 29%; under setting [8], 0 to 29%; under setting [9], 0 to 29%; under setting [10], 0 to 29%; under setting [11], 0 to 29%; under setting [12], 30 to 44%. Further, the pest or weed control at 140 g/ha is, setting by setting: under setting [13], 0 to 29%; under setting [14], 0 to 29%; under setting [15], 0 to 29%.

`COC(=O)c1nc(-c2ccc(C(F)(F)F)cc2F)ncc1Cl` [F312, Methyl 5-chloro-2-(2-fluoro-4-(trifluoromethyl)phenyl) pyrimidine-4-carboxylate]: the pest or weed control at 140 g/ha under setting [1] was 75 to 84%; the pest or weed control at 140 g/ha under setting [2] was in the range of 95 to 100%; the pest or weed control at 140 g/ha under setting [3] was 0 to 29%; the pest or weed control at 140 g/ha under setting [4] was 0 to 29%; the pest or weed control at 140 g/ha under setting [5] lay within 60 to 74%; the pest or weed control at 140 g/ha under setting [6] lay in the range of 85 to 94%. The pest or weed control at 140 g/ha under setting [7] lay within 0 to 29%; the pest or weed control at 140 g/ha under setting [8] lay within 30 to 44%; the pest or weed control at 140 g/ha under setting [9] was in the range of 0 to 29%; the pest or weed control at 140 g/ha under setting [10] is 85 to 94%; the pest or weed control at 140 g/ha under setting [11] lay in the range of 85 to 94%; the pest or weed control at 140 g/ha under setting [12] is 85 to 94%. Also, the pest or weed control at 140 g/ha under setting [13] was 85 to 94%, the pest or weed control at 140 g/ha under setting [14] lay within 0 to 29% and the pest or weed control at 140 g/ha under setting [15] is 45 to 59%.

`COC(=O)c1nc(-c2ccc(C(F)(F)F)cc2OC)ncc1Cl` [F313, methyl 5-chloro-2-(2-methoxy-4-(trifluoromethyl)phenyl)pyrimidine-4-carboxylate]: the pest or weed control at 140 g/ha under setting [1] was in the range of 60 to 74%; the pest or weed control at 140 g/ha under setting [2] was 95 to 100%; the pest or weed control at 140 g/ha under setting [3] lay in the range of 0 to 29%; the pest or weed control at 140 g/ha under setting [4] lay in the range of 0 to 29%; the pest or weed control at 140 g/ha under setting [5] was in the range of 60 to 74%; the pest or weed control at 140 g/ha under setting [6] is 85 to 94%. Moreover, the pest or weed control at 140 g/ha lay within 0 to 29% under setting [7]; 0 to 29% under setting [8]; 0 to 29% under setting [9]; 45 to 59% under setting [10]; 75 to 84% under setting [11]; 30 to 44% under setting [12]. Also, the pest or weed control at 140 g/ha is, setting by setting: under setting [13], 45 to 59%; under setting [14], 0 to 29%; under setting [15], 0 to 29%.

Turning to `O=C(O)c1nc(-c2ccc(C(F)(F)F)c(Cl)c2)ccc1Cl` [F314, 3-Chloro-6-(3-chloro-4-(trifluoromethyl)phenyl) picolinic acid], the pest or weed control at 140 g/ha is, setting by setting: under setting [1], 0 to 29%; under setting [2], 95 to 100%; under setting [3], 0 to 29%; under setting [4], 0 to 29%; under setting [5], 0 to 29%; under setting [6], 75 to 84%. The pest or weed control at 140 g/ha under setting [7] lay in the range of 0 to 29%; the pest or weed control at 140 g/ha under setting [8] fell in the range of 0 to 29%; the pest or weed control at 140 g/ha under setting [9] was 0 to 29%; the pest or weed control at 140 g/ha under setting [10] is 45 to 59%; the pest or weed control at 140 g/ha under setting [11] lay in the range of 75 to 84%; the pest or weed control at 140 g/ha under setting [12] was in the range of 30 to 44%. In addition, the pest or weed control at 140 g/ha is, setting by setting: under setting [13], 0 to 29%; under setting [14], 0 to 29%; under setting [15], 0 to 29%.

For the molecule `O=C(O)c1nc(-c2ccc(C(F)(F)F)c(F)c2)ccc1Cl` [F315, 3-Chloro-6-(3-fluoro-4-(trifluoromethyl)phenyl) picolinic acid], the pest or weed control at 140 g/ha under setting [1] was 0 to 29%; the pest or weed control at 140 g/ha under setting [2] is 95 to 100%; the pest or weed control at 140 g/ha under setting [3] is 0 to 29%; the pest or weed control at 140 g/ha under setting [4] fell in the range of 0 to 29%; the pest or weed control at 140 g/ha under setting [5] was in the range of 60 to 74%; the pest or weed control at 140 g/ha under setting [6] was 85 to 94%. Also, the pest or weed control at 140 g/ha by setting is: under setting [7], 0 to 29%; under setting [8], 60 to 74%; under setting [9], 0 to 29%; under setting [10], 60 to 74%; under setting [11], 75 to 84%; under setting [12], 60 to 74%. Also, the pest or weed control at 140 g/ha by setting is: under setting [13], 60 to 74%; under setting [14], 0 to 29%; under setting [15], 60 to 74%.

Take `Cc1cc(-c2ccc(Cl)c(C(=O)O)n2)ccc1C(F)(F)F` [F316, 3-Chloro-6-(3-methyl-4-(trifluoromethyl)phenyl) picolinic acid]: the pest or weed control at 140 g/ha under setting [1] was in the range of 0 to 29%; the pest or weed control at 140 g/ha under setting [2] fell in the range of 60 to 74%; the pest or weed control at 140 g/ha under setting [3] fell in the range of 0 to 29%; the pest or weed control at 140 g/ha under setting [4] is 0 to 29%; the pest or weed control at 140 g/ha under setting [5] lay in the range of 0 to 29%; the pest or weed control at 140 g/ha under setting [6] lay in the range of 0 to 29%. For the same molecule, the pest or weed control at 140 g/ha is, setting by setting: under setting [7], 0 to 29%; under setting [8], 0 to 29%; under setting [9], 0 to 29%; under setting [10], 30 to 44%; under setting [11], 0 to 29%; under setting [12], 30 to 44%. For the same molecule, the pest or weed control at 140 g/ha was 0 to 29% under setting [13], 0 to 29% under setting [14] and 0 to 29% under setting [15].

As to `COc1cc(-c2ccc(Cl)c(C(=O)O)n2)ccc1C(F)(F)F` [F317, 3-Chloro-6-(3-methoxy-4-(trifluoromethyl)phenyl)picolinic acid], the pest or weed control at 140 g/ha reads like this: under setting [1], 0 to 29%; under setting [2], 60 to 74%; under setting [3], 0 to 29%; under setting [4], 0 to 29%; under setting [5], 0 to 29%; under setting [6], 0 to 29%. For the same molecule, the pest or weed control at 140 g/ha under setting [7] lay in the range of 0 to 29%; the pest or weed control at 140 g/ha under setting [8] is 0 to 29%; the pest or weed control at 140 g/ha under setting [9] fell in the range of 0 to 29%; the pest or weed control at 140 g/ha under setting [10] is 0 to 29%; the pest or weed control at 140 g/ha under setting [11] was 0 to 29%; the pest or weed control at 140 g/ha under setting [12] lay within 0 to 29%. The pest or weed control at 140 g/ha is, setting by setting: under setting [13], 0 to 29%; under setting [14], 0 to 29%; under setting [15], 0 to 29%.

Consider `COC(=O)c1nc(-c2cc3nonc3cc2F)c(F)cc1Cl` [F318, Methyl 3-chloro-5-fluoro-6-(6-fluorobenzo[c][1,2,5]oxadiazol-5-yl)picolinate], for which the pest or weed control at 140 g/ha lay in the range of 85 to 94% under setting [1]; 95 to 100% under setting [2]; 0 to 29% under setting [3]; 0 to 29% under setting [4]; 75 to 84% under setting [5]; 85 to 94% under setting [6]. The pest or weed control at 140 g/ha under setting [7] fell in the range of 0 to 29%; the pest or weed control at 140 g/ha under setting [8] lay in the range of 0 to 29%; the pest or weed control at 140 g/ha under setting [9] is 0 to 29%; the pest or weed control at 140 g/ha under setting [10] fell in the range of 0 to 29%; the pest or weed control at 140 g/ha under setting [11] lay in the range of 85 to 94%; the pest or weed control at 140 g/ha under setting [12] lay in the range of 60 to 74%. Also, the pest or weed control at 140 g/ha under setting [13] was in the range of 60 to 74%, the pest or weed control at 140 g/ha under setting [14] fell in the range of 0 to 29% and the pest or weed control at 140 g/ha under setting [15] fell in the range of 0 to 29%.

The values are drawn from patent publication US20230017045A1, “PYRIDINE AND PYRIMIDINE CARBOXYLATE HERBICIDES AND METHODS OF USE THEREOF” (Dow AgroSciences LLC, priority 2017, published 2023).
